Like-named read-outs stand apart in the source and are kept apart here.
Legend:
[1] = target: T1, Ba/F3 cell-derived tumors with the EML4-ALK L1198F/G1202R fusion (Homo sapiens, UniProt Q9UM73, G1202R/L1198F)
T1 sequence (Q9UM73 with tags, fused parts or gaps L1198F/G1202R): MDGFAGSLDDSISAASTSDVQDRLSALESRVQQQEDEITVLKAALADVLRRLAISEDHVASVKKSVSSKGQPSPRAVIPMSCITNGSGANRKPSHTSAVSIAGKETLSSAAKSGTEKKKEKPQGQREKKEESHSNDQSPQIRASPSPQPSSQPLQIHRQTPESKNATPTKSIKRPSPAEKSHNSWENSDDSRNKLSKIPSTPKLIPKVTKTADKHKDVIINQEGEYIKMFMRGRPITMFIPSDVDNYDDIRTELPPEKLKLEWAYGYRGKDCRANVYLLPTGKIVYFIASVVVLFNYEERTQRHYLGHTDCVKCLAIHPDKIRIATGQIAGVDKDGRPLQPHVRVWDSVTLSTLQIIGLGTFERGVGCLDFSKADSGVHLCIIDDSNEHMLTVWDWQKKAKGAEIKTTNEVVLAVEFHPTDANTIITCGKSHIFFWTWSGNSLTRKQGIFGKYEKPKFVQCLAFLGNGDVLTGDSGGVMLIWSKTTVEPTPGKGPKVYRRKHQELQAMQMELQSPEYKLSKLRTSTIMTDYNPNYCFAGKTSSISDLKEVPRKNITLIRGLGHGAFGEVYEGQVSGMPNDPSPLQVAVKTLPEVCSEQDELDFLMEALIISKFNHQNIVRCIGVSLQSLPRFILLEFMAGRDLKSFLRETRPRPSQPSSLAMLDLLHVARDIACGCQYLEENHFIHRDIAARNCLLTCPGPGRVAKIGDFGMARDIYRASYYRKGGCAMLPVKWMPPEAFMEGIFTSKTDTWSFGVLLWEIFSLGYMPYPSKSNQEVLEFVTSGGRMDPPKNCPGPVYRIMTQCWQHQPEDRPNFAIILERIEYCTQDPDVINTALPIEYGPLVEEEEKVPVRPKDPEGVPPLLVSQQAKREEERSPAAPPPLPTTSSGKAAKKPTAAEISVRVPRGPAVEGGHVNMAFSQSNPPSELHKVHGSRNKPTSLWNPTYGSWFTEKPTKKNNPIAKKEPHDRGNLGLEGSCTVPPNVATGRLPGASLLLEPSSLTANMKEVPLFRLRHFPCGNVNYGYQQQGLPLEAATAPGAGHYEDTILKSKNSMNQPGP

[2] = target: Ba/F3 cell-derived tumors with the EML4-ALK L1196M/G1202R fusion (Homo sapiens, UniProt Q9UM73, G1202R/L1196M)
ALK = target: T2, ALK (Homo sapiens, UniProt Q9UM73); assay: Biochemical kinase assay (Reaction Biology); conditions: 10 μM ATP
T2 construct: purchased Reaction Biology Corporation (contract assay)

ALK (C1156Y) = target: T3, ALK (C1156Y) (Homo sapiens, UniProt Q9UM73, C1156Y); assay: Biochemical kinase assay (Reaction Biology); conditions: 10 μM ATP
T3 construct: purchased Reaction Biology Corporation (contract assay)

ALK (E1210K/S1206C) = target: T4, ALK (E1210K/S1206C) (Homo sapiens, UniProt Q9UM73, E1210K/S1206C); assay: Biochemical kinase assay (Reaction Biology); conditions: 10 μM ATP
T4 construct: purchased Reaction Biology Corporation (contract assay)

ALK (F1174C) = target: T5, ALK (F1174C) (Homo sapiens, UniProt Q9UM73, F1174C); assay: Biochemical kinase assay (Reaction Biology); conditions: 10 μM ATP
T5 construct: purchased Reaction Biology Corporation (contract assay)

ALK (F1245C) = target: T6, ALK (F1245C) (Homo sapiens, UniProt Q9UM73, F1245C); assay: Biochemical kinase assay (Reaction Biology); conditions: 10 μM ATP
T6 construct: purchased Reaction Biology Corporation (contract assay)

ALK (G1202R) = target: T7, ALK (G1202R) (Homo sapiens, UniProt Q9UM73, G1202R); assay: Biochemical kinase assay (Reaction Biology); conditions: 10 μM ATP
T7 construct: purchased Reaction Biology Corporation (contract assay)

ALK (G1269A) = target: T8, ALK (G1269A) (Homo sapiens, UniProt Q9UM73, G1269A); assay: Biochemical kinase assay (Reaction Biology); conditions: 10 μM ATP
T8 construct: purchased Reaction Biology Corporation (contract assay)

ALK (G1269S) = target: T9, ALK (G1269S) (Homo sapiens, UniProt Q9UM73, G1269S); assay: Biochemical kinase assay (Reaction Biology); conditions: 10 μM ATP
T9 construct: purchased Reaction Biology Corporation (contract assay)

ALK (I1171N) = target: T10, ALK (I1171N) (Homo sapiens, UniProt Q9UM73, I1171N); assay: Biochemical kinase assay (Reaction Biology); conditions: 10 μM ATP
T10 construct: purchased Reaction Biology Corporation (contract assay)

ALK (L1152P) = target: T11, ALK (L1152P) (Homo sapiens, UniProt Q9UM73, L1152P); assay: Biochemical kinase assay (Reaction Biology); conditions: 10 μM ATP
T11 construct: purchased Reaction Biology Corporation (contract assay)

ALK (L1198F/C1156Y) = target: T12, ALK (L1198F/C1156Y) (Homo sapiens, UniProt Q9UM73, C1156Y/L1198F); assay: Biochemical kinase assay (Reaction Biology); conditions: 10 μM ATP
T12 construct: purchased Reaction Biology Corporation (contract assay)

ALK (L1198F/G1202R) = target: T13, ALK (L1198F/G1202R) (Homo sapiens, UniProt Q9UM73, G1202R/L1198F); assay: Biochemical kinase assay (Reaction Biology); conditions: 10 μM ATP
T13 construct: purchased Reaction Biology Corporation (contract assay)

ALK (S1206R) = target: T14, ALK (S1206R) (Homo sapiens, UniProt Q9UM73, S1206R); assay: Biochemical kinase assay (Reaction Biology); conditions: 10 μM ATP
T14 construct: purchased Reaction Biology Corporation (contract assay)

ALK (T1151-L1152insT) = target: T15, ALK (T1151-L1152insT) (Homo sapiens, UniProt Q9UM73, INS1151T); assay: Biochemical kinase assay (Reaction Biology); conditions: 10 μM ATP
T15 construct: purchased Reaction Biology Corporation (contract assay)

ALK (T1151M) = target: T16, ALK (T1151M) (Homo sapiens, UniProt Q9UM73, T1151M); assay: Biochemical kinase assay (Reaction Biology); conditions: 10 μM ATP
T16 construct: purchased Reaction Biology Corporation (assay run there)

ALK (V1180L) = target: T17, ALK (V1180L) (Homo sapiens, UniProt Q9UM73, V1180L); assay: Biochemical kinase assay (Reaction Biology); conditions: 10 μM ATP
T17 construct: purchased Reaction Biology Corporation (assay run there)

[3] = 2, 5, 10 mg/kg BID, after 7 days of treatment

CC1(C)COc2ccc(F)cc2CN2c3nc4c(cnn4cc3OC[C@H]2C(F)F)C(=O)N1 [Compound 1, (4S)-4-(Difluoromethyl)-8-fluoro-13,13-dimethyl-3,4,13,14-tetrahydro-6H-18,1-(metheno)[1,4]oxazino[3,4-i]pyrazolo[4,3-f][1,4,8,10]benzoxatriazacyclotridecin-15(12H)-one]
body weight [1, 3]: no body weight loss
Tumor growth inhibition (TGI) ([1]; all three dose levels of 2, 5, and 10 mg/kg BID, after 7 days of treatment): 200%
tumor response at the end of study ([1]; all three groups (2, 5, 10 mg/kg BID), day 14 post inoculation): complete regression
Tumor growth inhibition (TGI) ([2]; 0.6 mg/kg BID, after 7 days of treatment): 19%
Tumor growth inhibition (TGI) ([2]; 2 mg/kg BID, after 7 days of treatment): 44%
Tumor growth inhibition (TGI) ([2]; 5 mg/kg BID, after 7 days of treatment): 83%
Tumor growth inhibition (TGI) ([2]; 10 mg/kg BID, after 7 days of treatment): 200%
body weight [2, 3]: no body weight loss
tumor growth compared with vehicle treated group ([2]; Compound 1 0.6 mg/kg BID or lorlatinib 5 mg/kg BID, day 14, p>0.05): not significantly different

O=C1NCC2(CC2)COc2ccc(F)cc2CN2c3nc4c1cnn4cc3OC[C@H]2C(F)F [Compound 2, (16′S)-16′-(Difluoromethyl)-12′-fluoro-4′H,5′H,6′H,8′H,14′H,16′H,17′H-spiro[cyclopropane-1,7′-[1,19](metheno)[1,4]oxazino[3,4-j]pyrazolo[4,3-g][1,5,9,11]benzoxatriazacyclotetradecin]-4′-one]
IC50 (ALK): 1.4 nM
IC50 (ALK (C1156Y)): 0.11 nM
IC50 (ALK (E1210K/S1206C)): 0.13 nM
IC50 (ALK (F1174C)): 0.92 nM
IC50 (ALK (F1245C)): 0.41 nM
IC50 (ALK (G1202R)): 0.74 nM
IC50 (ALK (G1269A)): 1.28 nM
IC50 (ALK (G1269S)): 6.14 nM
IC50 (ALK (I1171N)): 1.16 nM
IC50 (ALK (L1152P)): 1.96 nM
IC50 (ALK (L1198F/C1156Y)): 0.15 nM
IC50 (ALK (L1198F/G1202R)): 0.49 nM
IC50 (ALK (S1206R)): 0.31 nM
IC50 (ALK (T1151-L1152insT)): 0.86 nM
IC50 (ALK (T1151M)): 0.28 nM
IC50 (ALK (V1180L)): 0.51 nM
